This is an account of results in US20260184733A1, “CRYSTAL FORM OF NEUROKININ-1 ANTAGONIST PRODRUG COMPOUND” (JIANGSU HENGRUI PHARMACEUTICALS CO., LTD., priority 2022, published 2026).

Assay type in all cases: physicochemical
The nature of series [1]: Dissolution of the raw material in 50% tert-butanol solution when preparing the lyophilized composition. Particulars: 4.36% (w/v) in 50% tert-butanol with 5% mannitol, stirred at room temperature. On the procedure: Tert-butanol and water were mixed at a volume ratio of 1:1 to form a 50% tert-butanol solution. 90% of the target volume of the solution was taken, and 5% (mass volume percentage) of mannitol and 4.36% of the raw material of the compound represented by formula I were added. The mixture was stirred at room temperature for dissolution (dissolution being considered as the absence of significant blocky or flocculent insoluble substances in the solution). The pH was adjusted to 5 with dilute hydrochloric acid or sodium hydroxide, filtration was performed with a […] organic filtration membrane to obtain a clear solution, and the volume of the clear solution was made constant with 50% tert-butanol. The above-mentioned solution was stored at 4° C. before subpackaging. After subpackaging according to the target volume, half of a stopper was pressed, and a freeze-drying procedure was run. After the completion of the procedure, nitrogen was filled, the remaining stopper was pressed, and the freeze-dried compounds were taken out of the box.

Series [2] can be described thus: Solvent residue of the crystal forms determined by gas chromatography. The protocol:
The solvent residue of the crystal form of the compound represented by formula I was determined by gas chromatography, as shown in the table below.

Series [3] can be described thus: Crystal form conversion on stirring in ethyl acetate at room temperature. The conditions noted are these: 1.0 g in 1.5 mL ethyl acetate, stirred at room temperature, filtered, dried under vacuum. On the procedure: 1.0 g of the crystal form I of the compound represented by formula I was added to 1.5 mL of ethyl acetate, and the mixture was stirred at room temperature, filtered, and dried under vacuum.
1.0 g of the crystal form III of the compound represented by formula I was added to 1.5 mL of ethyl acetate, and the mixture was stirred at room temperature, filtered, and dried under vacuum.

The structures appear in SMILES notation.

`C[C@@H](OC[C@@]1(c2ccccc2)CC[C@]2(CCC(=O)N2)CN1C(=O)OCOP(=O)(O)O)c1cc(C(F)(F)F)cc(C(F)(F)F)c1` [Crystal form II]: the “Dissolution behaviour of the raw material” value in series [1] was “dissolved faster, no agglomeration occurred”. In addition, in series [2], the “Solvent residue, comparison of the crystal forms” value was “lowest solvent residue”; the “Solvent residue: Ethyl acetate” value came to 0.0105%; the “Solvent residue: Ethylene glycol dimethyl ether” value is given as “Not detected”; the “Solvent residue: Methyl tert-butyl ether” value amounted to 0.1867%.

For the compound `C[C@@H](OC[C@@]1(c2ccccc2)CC[C@]2(CCC(=O)N2)CN1C(=O)OCOP(=O)(O)O)c1cc(C(F)(F)F)cc(C(F)(F)F)c1` [Crystal form III], in series [3], the “Crystal form after slurrying” value was “conversion to the crystal form II”. Moreover, in series [2], the “Solvent residue: 1,4-Dioxane” value is 6.3% and the “Solvent residue: Ethylene glycol dimethyl ether” value was “Not detected”.

Turning to `C[C@@H](OC[C@@]1(c2ccccc2)CC[C@]2(CCC(=O)N2)CN1C(=O)OCOP(=O)(O)O)c1cc(C(F)(F)F)cc(C(F)(F)F)c1` [Crystal form I], the “Crystal form after slurrying” value in series [3] is “conversion to the crystal form II”. In series [2], the “Solvent residue: Ethyl acetate” value came to 0.0293%, the “Solvent residue: Ethylene glycol dimethyl ether” value is reported as “Not detected” and the “Solvent residue: Isopropyl ether” value was 12.0%.

Consider `C[C@@H](OC[C@@]1(c2ccccc2)CC[C@]2(CCC(=O)N2)CN1C(=O)OCOP(=O)(O)O)c1cc(C(F)(F)F)cc(C(F)(F)F)c1` [amorphous form], for which the “Dissolution behaviour of the raw material” value in series [1] was “agglomerated in a large amount in the solution, resulting in the inability to completely dissolve the raw material”.
